In ChEMBL document CHEMBL1130740, “Sugar-substituted 2-azetidinone cholesterol absorption inhibitors: enhanced potency by modification of the sugar” (1998):

Assays:
Assay type in all cases: functional, Cricetulus griseus
Cricetinae gen. sp. [1] = assay: Compound was tested for percent reduction of liver cholesterol esters absorption in cholesterol fed hamster model at a dose of 3 mg/kg/day
Cricetinae gen. sp. [2] = assay: Dose required to inhibit cholesterol absorption in cholesterol fed hamster model
Cricetinae gen. sp. [3] = assay: Compound was tested for percent reduction of serum cholesterol absorption in cholesterol fed hamster model at a dose of 3 mg/kg/day

`COC(=O)[C@H]1O[C@@H](Oc2ccc([C@@H]3[C@@H](CC[C@H](O)c4ccc(F)cc4)C(=O)N3c3ccc(F)cc3)cc2)[C@H](O)[C@@H](O)[C@@H]1O` gave a Reduction (Cricetinae gen. sp. [1]) of -89%, an ED50 (Cricetinae gen. sp. [2]) of 0.04 mg/kg/day and a Reduction (Cricetinae gen. sp. [3]) of -48%.
In the case of `COC(=O)[C@H]1O[C@@H](Oc2ccc([C@@H]3[C@@H](CC[C@H](OC(C)=O)c4ccc(F)cc4)C(=O)N3c3ccc(F)cc3)cc2)[C@H](OC(C)=O)[C@@H](OC(C)=O)[C@@H]1OC(C)=O`, the Reduction (Cricetinae gen. sp. [1]) is reported as -96%, the ED50 (Cricetinae gen. sp. [2]) is reported as 0.09 mg/kg/day and the Reduction (Cricetinae gen. sp. [3]) is reported as -53%.
Work on `O=C1[C@H](CC[C@H](O)c2ccc(F)cc2)[C@@H](c2ccc(O[C@@H]3O[C@H](CO)[C@@H](O)[C@H](O)[C@H]3O)cc2)N1c1ccc(F)cc1` yielded a Reduction (Cricetinae gen. sp. [1]) of -92%, an ED50 (Cricetinae gen. sp. [2]) of 0.08 mg/kg/day and a Reduction (Cricetinae gen. sp. [3]) of -48%.
Work on `O=C(O)[C@H]1O[C@@H](Oc2ccc([C@@H]3[C@@H](CC[C@H](O)c4ccc(F)cc4)C(=O)N3c3ccc(F)cc3)cc2)[C@H](O)[C@@H](O)[C@@H]1O` yielded a Reduction (Cricetinae gen. sp. [1]) of -95%, an ED50 (Cricetinae gen. sp. [2]) of 0.17 mg/kg/day and a Reduction (Cricetinae gen. sp. [3]) of -50%.
Compound `CC(=O)OC[C@H]1O[C@@H](Oc2ccc([C@@H]3[C@@H](CC[C@H](OC(C)=O)c4ccc(F)cc4)C(=O)N3c3ccc(F)cc3)cc2)[C@H](OC(C)=O)[C@@H](OC(C)=O)[C@@H]1OC(C)=O` has a Reduction (Cricetinae gen. sp. [1]) of -58% and a Reduction (Cricetinae gen. sp. [3]) of -14%.
Compound `O=C1[C@H](CC[C@H](O)c2ccc(F)cc2)[C@@H](c2ccc(O[C@@H]3O[C@H](CO)[C@@H](O[C@@H]4O[C@H](CO)[C@@H](O)[C@H](O)[C@H]4O)[C@H](O)[C@H]3O)cc2)N1c1ccc(F)cc1` has a Reduction (Cricetinae gen. sp. [1]) of -90%, an ED50 (Cricetinae gen. sp. [2]) of 0.01 mg/kg/day and a Reduction (Cricetinae gen. sp. [3]) of -36%.
`CC(=O)OC[C@H]1O[C@@H](O[C@H]2[C@H](OC(C)=O)[C@@H](OC(C)=O)[C@H](Oc3ccc([C@@H]4[C@@H](CC[C@H](OC(C)=O)c5ccc(F)cc5)C(=O)N4c4ccc(F)cc4)cc3)O[C@@H]2COC(C)=O)[C@H](OC(C)=O)[C@@H](OC(C)=O)[C@@H]1OC(C)=O` showed a Reduction (Cricetinae gen. sp. [1]) of -75% and a Reduction (Cricetinae gen. sp. [3]) of -43%.
`O=C1[C@H](CC[C@H](O)c2ccc(F)cc2)[C@@H](c2ccc(O)cc2)N1c1ccc(F)cc1` [EZETIMIBE] showed a Reduction (Cricetinae gen. sp. [1]) of -93%, an ED50 (Cricetinae gen. sp. [2]) of 0.04 mg/kg/day and a Reduction (Cricetinae gen. sp. [3]) of -43%.
With `COc1ccc([C@@H]2[C@@H](CCCc3ccccc3)C(=O)N2c2ccc(OC)cc2)cc1` [SCH-48461] the ED50 (Cricetinae gen. sp. [2]) was 2 mg/kg/day.
